Results from US20170107207A1, “AMINOPYRAZOLONE DERIVATIVE” (DAIICHI SANKYO COMPANY, LIMITED, priority 2014, published 2017).

Columns and labels:
TIP48/TIP49 complex = biological target: T1, TIP48/TIP49 complex (Homo sapiens, UniProt Q9Y230+Q9Y265); assay: ATPase assay of TIP48/TIP49 complex (ADP-Glo); type: biochemical; details: concentration at which the ATPase activity was inhibited by 50%
T1 construct: made in house; host or cells: E. coli
Procedure, shortened: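 Compound was tested over 10 four-fold concentrations, 200 μM down to 0.0007 μM at 2% DMSO, against E. coli-derived human rTIP48/rTIP49 for 1.5 h at room temperature, pH 7.5 with ATP. ATP hydrolysis was read as ADP-Glo luminescence, normalised to complex-only and no-complex wells, then fitted to dose-response curves.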

[1] = test system: human lymphoma cell line RAMOS cells; assay: Cell growth inhibition test using RAMOS cell, MTT assay; type: cell-based; details: 50% growth inhibition concentration
Method: A cell growth inhibition test was carried out by treating human lymphoma cell line RAMOS cells with a test compound for a given period and then counting the number of viable cells by MTT assay or CellTiter-Glo Luminescent Cell Viability Assay (manufactured by Promega Corp.; hereinafter, referred to as ATP assay).
RAMOS cells were suspended in a medium (RPMI1640 medium containing 10% fetal bovine serum). The cell suspension was inoculated at 5000 cells/150 μL/well to a 96-well multiwell plate. The test compound was dissolved in DMSO, and this solution was diluted with medium to prepare a sample solution (DMSO concentration: 1% or lower). Subsequently, test compound-free medium or the sample solution was added thereto at 50 μL/well. The MTT assay was carried out at the day of addition of the sample solution or the DMSO dilution to the cells and after culture at 37° C. for 3 days under 5% CO2 of the cells supplemented with the sample solution or the medium. The MTT assay was carried out as follows.
A 5 mg/mL solution of MTT (3-(4,5-dimethylthiazol-2-yl)-2,5-diphenyltetrazolium bromide, Sigma-Aldrich Corp., M-2128) was prepared using a phosphate buffered solution (Dulbecco's phosphate-buffered saline). This MTT solution was added at 20 μL/well to the plate. Then, the plate was incubated at 37° C. for 4 hours under 5% CO2. The plate was centrifuged at 1200 rpm for 5 minutes, and then, the culture supernatant was removed by suction using a dispenser. DMSO was added thereto at 150 μL/well to dissolve formed formazan. […] from each well was rendered uniform by the stirring of the plate using a plate mixer. The absorbance of each well was measured using a plate reader under conditions involving OD of 540 nm and reference of 660 nm.
The number of viable cells and absorbance (hereinafter, referred to as an OD value) have been confirmed to correlate with each other. Therefore, the rate of cell growth was calculated according to the following expression: Rate of cell growth (T/C %) of a test compound-supplemented well=100×[(B−C)/(A−C)] wherein A represents the OD value (final culture date) of a test compound-free well; B represents the OD value (final culture date) of a test compound-containing well; and C represents the OD value (day of cell inoculation) of a well at the start of contact of the cells with the test compound.
T/C % at each concentration of the test compound was determined. The concentration at which the test compound offered 50% growth rate was calculated as a 50% growth inhibition concentration (GI50) value from the growth rates at two points interpolating 50% and the concentrations, and is shown in Table 56.

T1 sequence (Q9Y230 whole entry): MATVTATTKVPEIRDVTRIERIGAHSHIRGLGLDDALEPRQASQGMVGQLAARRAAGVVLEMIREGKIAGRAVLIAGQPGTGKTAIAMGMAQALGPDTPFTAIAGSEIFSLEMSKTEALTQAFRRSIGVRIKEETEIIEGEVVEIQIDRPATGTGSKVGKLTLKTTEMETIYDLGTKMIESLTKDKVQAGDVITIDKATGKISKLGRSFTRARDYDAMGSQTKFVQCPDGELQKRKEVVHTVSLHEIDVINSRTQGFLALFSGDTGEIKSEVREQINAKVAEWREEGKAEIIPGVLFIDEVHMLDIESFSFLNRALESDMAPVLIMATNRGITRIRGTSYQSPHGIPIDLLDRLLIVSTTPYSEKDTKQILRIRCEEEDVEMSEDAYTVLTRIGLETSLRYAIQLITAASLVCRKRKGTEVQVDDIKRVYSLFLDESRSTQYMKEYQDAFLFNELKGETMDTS
T1 sequence (Q9Y265 whole entry): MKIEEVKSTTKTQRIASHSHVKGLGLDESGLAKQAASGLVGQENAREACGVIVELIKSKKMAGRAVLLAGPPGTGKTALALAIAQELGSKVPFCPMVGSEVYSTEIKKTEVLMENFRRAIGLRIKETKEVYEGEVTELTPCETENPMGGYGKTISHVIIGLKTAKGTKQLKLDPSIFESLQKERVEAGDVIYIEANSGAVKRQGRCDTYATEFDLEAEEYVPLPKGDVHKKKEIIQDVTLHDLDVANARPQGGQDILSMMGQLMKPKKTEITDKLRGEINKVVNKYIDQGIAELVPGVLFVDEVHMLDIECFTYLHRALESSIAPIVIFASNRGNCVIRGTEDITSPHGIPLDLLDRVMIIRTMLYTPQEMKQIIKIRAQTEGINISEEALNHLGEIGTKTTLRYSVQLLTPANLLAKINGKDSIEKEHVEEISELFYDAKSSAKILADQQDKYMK

Row | SMILES | IC50 (TIP48/TIP49 complex) [nM] | GI50 [1] [nM]
1 | CCOc1ccc(Cl)cc1C(=O)NCC(C)(C)CC(=O)Nc1c(CCCCN(C)C)n(C)n(-c2ccccc2)c1=O [Example 88, 5-Chloro-N-[4-({5-[4-(dimethylamino)butyl]-1-methyl-3-oxo-2-phenyl-2,3-dihydro-1H-pyrazol-4-yl}amino)-2,2-dimethyl-4-oxobutyl]-2-ethoxybenzamide] | 33 | 61
2 | CCOc1ccc(Cl)cc1NC(=O)CC(C)(O)CC(=O)Nc1c(C)n(C)n(-c2ccccc2)c1=O (stereo not shown) [Example 103, N-(5-Chloro-2-ethoxyphenyl)-N′-(1,5-dimethyl-3-oxo-2-phenyl-2,3-dihydro-1H-pyrazol-4-yl)-3-hydroxy-3-methylpentanediamide] | 170 | 1400
3 | COc1ccc(Cl)cc1NC(=O)CC1(CC(=O)Nc2c(C)n(C)n(-c3ccccc3)c2=O)OCCO1 [Example 98, N-(5-Chloro-2-methoxyphenyl)-2-(2-{2-[(1,5-dimethyl-3-oxo-2-phenyl-2,3-dihydro-1H-pyrazol-4-yl)amino]-2-oxoethyl}-1,3-dioxolan-2-yl)acetamide] | 2200 | 9600
4 | CCOc1ccc(Cl)cc1C(=O)NCC(C)(C)CC(=O)Nc1c(C)n(C)n(-c2ccccc2)c1=O [Example 93, 5-Chloro-N-{4-[(1,5-dimethyl-3-oxo-2-phenyl-2,3-dihydro-1H-pyrazol-4-yl)amino]-2,2-dimethyl-4-oxobutyl}-2-ethoxybenzamide] | 25 | 55
5 | Cc1c(NC(=O)CC(C)(O)CNC(=O)c2cc(Cl)c(F)cc2OC(C)C)c(=O)n(-c2ccccc2)n1C (stereo not shown) [Example 97, 5-Chloro-N-{4-[(1,5-dimethyl-3-oxo-2-phenyl-2,3-dihydro-1H-pyrazol-4-yl)amino]-2-hydroxy-2-methyl-4-oxobutyl}-4-fluoro-2-isopropoxybenzamide] | 100 | 1000
6 | COc1cc(F)c(Cl)cc1C(=O)NCC(C)(C)CC(=O)Nc1c(CN(C)C)n(C)n(-c2ccccc2)c1=O [Example 6, 5-Chloro-N-[4-({5-[(dimethylamino)methyl]-1-methyl-3-oxo-2-phenyl-2,3-dihydro-1H-pyrazol-4-yl}amino)-2,2-dimethyl-4-oxobutyl]-4-fluoro-2-methoxybenzamide] | 150 | 170
7 | COc1ccc(Cl)cc1NC(=O)CC1(CC(=O)Nc2c(C)n(C)n(-c3ccccc3)c2=O)CCC1 [Example 100, N-(5-Chloro-2-methoxyphenyl)-2-(1-{2-[(1,5-dimethyl-3-oxo-2-phenyl-2,3-dihydro-1H-pyrazol-4-yl)amino]-2-oxoethyl}cyclobutyl)acetamide] | 95 | 860
8 | CCOc1ccc(Cl)cc1NC(=O)CC(C)(CC(=O)Nc1c(C)n(C)n(-c2ccccc2)c1=O)OC(C)=O (stereo not shown) [Example 102, {1-[2-(5-Chloro-2-ethoxyaniline)-2-oxoethyl]-3-[(1,5-dimethyl-3-oxo-2-phenyl-2,3-dihydro-1H-pyrazol-4-yl)amino]-1-methyl-3-oxopropyl} acetate] | 150 | 780
9 | Cc1c(NC(=O)CC(C)(C)CNC(=O)c2cc(Cl)cc3c2OC(C)C3)c(=O)n(-c2ccccc2)n1C (stereo not shown) [Example 105, 5-Chloro-N-{4-[(1,5-dimethyl-3-oxo-2-phenyl-2,3-dihydro-1H-pyrazol-4-yl)amino]-2,2-dimethyl-4-oxobutyl}-2-methyl-2,3-dihydrobenzofuran-7-carboxamide] | 26 | 74
10 | Cc1c(NC(=O)CC(C)(C)CNC(=O)c2cc(Cl)cc3c2OC(C)CN3)c(=O)n(-c2ccccc2)n1C (stereo not shown) [Example 109] | 200 | 200
11 | CCOc1ccc(Cl)cc1C(=O)NCC(C)(C)CC(=O)Nc1c(CCN(C)CC)n(C)n(-c2ccccc2)c1=O [Example 35, 5-Chloro-2-ethoxy-N-{4-[(5-{2-[ethyl(methyl)amino]ethyl}-1-methyl-3-oxo-2-phenyl-2,3-dihydro-1H-pyrazol-4-yl)amino]-2,2-dimethyl-4-oxobutyl}benzamide] | 26 | 98
12 | COc1ccc(Cl)cc1NC(=O)CC(C)(C)CC(=O)Nc1cn(C)n(-c2ccccc2)c1=O [Example 136, N-(5-Chloro-2-methoxyphenyl)-3,3-dimethyl-N′-(1-methyl-3-oxo-2-phenyl-2,3-dihydro-1H-pyrazol-4-yl)pentanediamide] | 310 | 1700
13 | CCOc1ncc(Cl)cc1C(=O)NCC(C)(C)CC(=O)Nc1c(C)n(CCN2CCOCC2)n(-c2ccccc2)c1=O [Example 142, 5-Chloro-N-(2,2-dimethyl-4-{[5-methyl-1-(2-morpholinoethyl)-3-oxo-2-phenyl-2,3-dihydro-1H-pyrazol-4-yl]amino}-4-oxobutyl)-2-ethoxypyridine-3-carboxamide] | 61 | 180
14 | CCOc1ccc(Cl)cc1C(=O)NCC(C)(C)CC(=O)Nc1c(CCNC(=O)OC(C)(C)C)n(C)n(-c2ccccc2)c1=O [Example 10, tert-Butyl N-{2-[4({4-[(5-chloro-2-ethoxybenzoyl)amino]-3,3-dimethylbutanoyl}amino)-2-methyl-5-oxo-1-phenyl-2,3-dihydro-1H-pyrazol-3-yl]ethyl}carbamate] | 14 | 45
15 | CCOc1ccc(Cl)cc1C(=O)NCC(C)(C)CC(=O)Nc1c(C)n(C(C)C)n(-c2ccccn2)c1=O [Example 156, 5-Chloro-2-ethoxy-N-(4-{[1-isopropyl-5-methyl-3-oxo-2-(2-pyridyl)pyrazol-4-yl]amino}-2,2-dimethyl-4-oxobutyl)benzamide] | 48 | 100
16 | CCOc1ccc(Cl)cc1C(=O)NCC(C)(C)CC(=O)Nc1c(CCN(CC)CC)n(C)n(-c2ccccc2)c1=O [Example 17, 5-Chloro-N-[4-({5-[2-(diethylamino)ethyl]-1-methyl-3-oxo-2-phenyl-2,3-dihydro-1H-pyrazol-4-yl}amino)-2,2-dimethyl-4-oxobutyl]-2-ethoxybenzamide] | 60 | 130
17 | CCOc1ccc(Cl)cc1C(=O)NCC(C)(C)CC(=O)Nc1c(CCCN(C)C)n(C)n(-c2ccccc2)c1=O [Example 63, 5-Chloro-N-[4-({5-[3-(dimethylamino)propyl]-1-methyl-3-oxo-2-phenyl-2,3-dihydro-1H-pyrazol-4-yl}amino)-2,2-dimethyl-4-oxobutyl]-2-ethoxybenzamide] | 29 | 100
18 | Cc1c(NC(=O)CC(C)(C)CNC(=O)c2cc(Cl)cc3c2OCCC3)c(=O)n(-c2ccccc2)n1C [Example 106, 6-Chloro-N-{4-[(1,5-dimethyl-3-oxo-2-phenyl-2,3-dihydro-1H-pyrazol-4-yl)amino]-2,2-dimethyl-4-oxobutyl}chromane-8-carboxamide] | 35 | 100
19 | Cc1c(NC(=O)CC(C)(C)CNC(=O)c2cc(Cl)ccc2OC2CC2)c(=O)n(-c2ccccc2)n1C [Example 96] | 35 | 120
20 | CCOc1cc(F)c(Cl)cc1NC(=O)CC(C)(C)CC(=O)Nc1c(COC)n(C)n(-c2ccccc2)c1=O [Example 119, N-(5-Chloro-2-ethoxy-4-fluorophenyl)-N′-[5-(methoxymethyl)-1-methyl-3-oxo-2-phenyl-2,3-dihydro-1H-pyrazol-4-yl]-3,3-dimethylpentanediamide] | 95 | 270
21 | COc1cc(F)c(Cl)cc1NC(=O)CC(C)(C)CC(=O)Nc1c(C)[nH]n(-c2ccccc2)c1=O [Example 144, N-(5-Chloro-4-fluoro-2-methoxyphenyl)-3,3-dimethyl-N′-(5-methyl-3-oxo-2-phenyl-1H-pyrazol-4-yl)pentanediamide] | 1500 | 11000
22 | Cc1c(NC(=O)CC(C)(C)CNC(=O)c2cc(Cl)cc3c2OC(C)(C)C3)c(=O)n(-c2ccccc2)n1CCO [Example 139, 5-Chloro-N-(4-{[1-(2-hydroxyethyl)-5-methyl-3-oxo-2-phenyl-2,3-dihydro-1H-pyrazol-4-yl]amino}-2,2-dimethyl-4-oxobutyl)-2,2-dimethyl-3H-benzofuran-7-carboxamide] | 25 | 65
23 | COc1ccc(Cl)cc1C(=O)NCC(C)(C)C(O)C(=O)Nc1c(C)n(C)n(-c2ccccc2)c1=O (stereo not shown) [Example 112] | 150 | 680
